Assay results published in ChEMBL document CHEMBL1201862, “PubChem BioAssay data set” (2004).
Calls of active or inactive are those of the source.

Experiments:
[1] = target: Nonstructural protein 1 (Influenza A virus, UniProt Q194T2); type: functional, Influenza A virus (A/California/07/2009(H1N1))
[2] = inhibitors of firefly luciferase expression or activity, dose response, H4 neuroglioma cells, luminescence (AID 1990); type: functional, cell-based
[3] = tested on: Streptococcus sp. 'group A'; experiment: growth inhibition of control SK(-) GAS strain, dose response, counter-screen for streptokinase expression inhibitor project, luminescence, kanamycin, BacTiterGlo, confirmation (AID 1900); type: functional, organism-based
[4] = Luminescence Cell-Based Dose Response HTS to Identify Inhibitors of 5'UTR Stem-Loop Driven Prion Protein mRNA Translation in H4 Neuroglioblastoma Cells. [Related pubchem assays: 1827 (Project Summary), 1813 (Primary HTS)]; type: functional
[5] = inhibitors of SNCA 5'UTR-driven reporter translation, confirmation, H4 neuroglioma cells, luminescence (AID 1988); type: functional, cell-based
[6] = inhibitors of intracellular T. cruzi replication, confirmation, NIH3T3 host cells, beta-gal luminescence (AID 2044); type: functional, cell-based;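 also: intracellular parasites grown in NIH/3T3 mouse fibroblasts as host cells; luminescent beta-galactosidase reporter signal from transgenic T. cruzi replicating inside host cells; inhibitors lower the luminescence signal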
[7] = microbe, parasite or virus in culture; type: functional; conditions: Mycobacterium tuberculosis
[8] = cytotoxicity toward NIH3T3 fibroblasts, dose response, counter-screen, cell-based, ATP luminescence, mouse fibroblasts (AID 2010); type: functional;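 also: cells exposed to compound for about 90 hours before reading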
[9] = tested on: Streptococcus; experiment: Group A Streptococcus viability loss, dose response, counter-screen for streptokinase expression inhibitor project, luminescence, BacTiterGlo (AID 1915); type: functional, organism-based;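 also: potency for reduction of bacterial viability or growth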
[10] = cytotoxicity in HEK-293T cells, dose response, cytotoxicity control for BCR NF-kB inhibitor project, luminescence, B-cell screen hits (AID 489021); type: functional, cell-based;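 also: HEK-293T cells carrying an NF-kB luciferase reporter; cells exposed to compound for about 14 hours before viability readout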
[11] = tested on: INS1; experiment: beta cell apoptosis inhibitors, cytokine rescue, dose response, luminescence, retest (AID 449756); type: functional, cell-based; conditions: Rattus norvegicus;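 also: cell death triggered by IL-1 beta plus TNF-alpha plus IFN-gamma mixture; protective hits raise ATP signal compared with cytokine alone wells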
[12] = tested on: H9c2; experiment: cells; type: functional, cell-based; conditions: Rattus norvegicus, H9c2, Myocardium;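 also: confirmatory concentration-response retest of ultra-high-throughput screening hits for modulation of myocardial damage; cell death induced by hydrogen peroxide oxidative stress; compound pretreatment for 60 min then peroxide exposure for 2 h; potency is for protecting the cells against peroxide damage rather than for killing them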
[13] = target: T1, Caspase-3 (Homo sapiens, UniProt P42574); type: functional;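 also: Dose-response selectivity test against caspase-3 for candidate inhibitors of sentrin-specific proteases (SENPs)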
T1 sequence (P42574 whole entry): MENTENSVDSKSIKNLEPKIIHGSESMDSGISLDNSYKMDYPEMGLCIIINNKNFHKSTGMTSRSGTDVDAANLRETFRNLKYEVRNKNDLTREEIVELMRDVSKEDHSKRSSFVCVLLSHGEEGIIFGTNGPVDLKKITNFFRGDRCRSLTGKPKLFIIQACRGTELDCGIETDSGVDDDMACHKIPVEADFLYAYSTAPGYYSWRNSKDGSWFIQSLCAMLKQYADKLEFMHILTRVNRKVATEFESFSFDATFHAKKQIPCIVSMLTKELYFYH

[14] = target: T2, Sentrin-specific protease 7 (Homo sapiens, UniProt Q9BQF6); type: functional;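 also: Luminescence-based dose-response confirmation of ultra-high-throughput screening hits, measuring inhibition of SENP7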
T2 sequence (Q9BQF6 whole entry): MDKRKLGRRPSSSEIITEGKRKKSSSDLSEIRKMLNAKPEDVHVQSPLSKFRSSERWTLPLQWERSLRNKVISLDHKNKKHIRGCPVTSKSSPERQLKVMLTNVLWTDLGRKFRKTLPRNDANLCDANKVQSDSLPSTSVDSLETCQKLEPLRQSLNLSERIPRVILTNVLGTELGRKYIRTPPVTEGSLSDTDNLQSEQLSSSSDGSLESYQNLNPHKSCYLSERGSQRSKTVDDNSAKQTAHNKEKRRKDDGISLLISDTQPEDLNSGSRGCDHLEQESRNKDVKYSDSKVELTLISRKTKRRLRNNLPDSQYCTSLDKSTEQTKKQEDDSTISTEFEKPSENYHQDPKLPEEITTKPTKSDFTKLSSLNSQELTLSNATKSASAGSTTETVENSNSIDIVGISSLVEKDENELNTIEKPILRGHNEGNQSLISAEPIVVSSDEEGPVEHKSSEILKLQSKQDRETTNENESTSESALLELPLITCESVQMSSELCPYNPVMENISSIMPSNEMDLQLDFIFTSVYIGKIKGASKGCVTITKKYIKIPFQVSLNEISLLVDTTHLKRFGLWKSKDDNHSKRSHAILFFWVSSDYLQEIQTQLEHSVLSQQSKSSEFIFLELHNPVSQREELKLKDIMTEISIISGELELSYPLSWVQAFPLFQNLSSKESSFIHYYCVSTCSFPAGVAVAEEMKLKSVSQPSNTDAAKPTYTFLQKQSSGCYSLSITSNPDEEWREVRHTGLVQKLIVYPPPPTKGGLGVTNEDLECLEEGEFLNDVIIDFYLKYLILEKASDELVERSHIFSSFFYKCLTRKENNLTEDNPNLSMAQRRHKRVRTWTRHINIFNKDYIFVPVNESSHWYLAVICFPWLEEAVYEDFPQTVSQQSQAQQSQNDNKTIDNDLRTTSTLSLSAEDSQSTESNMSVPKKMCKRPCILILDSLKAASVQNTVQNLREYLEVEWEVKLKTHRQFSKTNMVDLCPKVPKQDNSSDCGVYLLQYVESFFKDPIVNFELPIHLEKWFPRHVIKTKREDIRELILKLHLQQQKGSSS

[15] = target: T3, Sentrin-specific protease 6 (Homo sapiens, UniProt Q9GZR1); type: functional;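 also: Luminescence-based dose-response confirmatory assay of SENP6 inhibition, following up an ultra-high-throughput screen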
T3 sequence (Q9GZR1 whole entry): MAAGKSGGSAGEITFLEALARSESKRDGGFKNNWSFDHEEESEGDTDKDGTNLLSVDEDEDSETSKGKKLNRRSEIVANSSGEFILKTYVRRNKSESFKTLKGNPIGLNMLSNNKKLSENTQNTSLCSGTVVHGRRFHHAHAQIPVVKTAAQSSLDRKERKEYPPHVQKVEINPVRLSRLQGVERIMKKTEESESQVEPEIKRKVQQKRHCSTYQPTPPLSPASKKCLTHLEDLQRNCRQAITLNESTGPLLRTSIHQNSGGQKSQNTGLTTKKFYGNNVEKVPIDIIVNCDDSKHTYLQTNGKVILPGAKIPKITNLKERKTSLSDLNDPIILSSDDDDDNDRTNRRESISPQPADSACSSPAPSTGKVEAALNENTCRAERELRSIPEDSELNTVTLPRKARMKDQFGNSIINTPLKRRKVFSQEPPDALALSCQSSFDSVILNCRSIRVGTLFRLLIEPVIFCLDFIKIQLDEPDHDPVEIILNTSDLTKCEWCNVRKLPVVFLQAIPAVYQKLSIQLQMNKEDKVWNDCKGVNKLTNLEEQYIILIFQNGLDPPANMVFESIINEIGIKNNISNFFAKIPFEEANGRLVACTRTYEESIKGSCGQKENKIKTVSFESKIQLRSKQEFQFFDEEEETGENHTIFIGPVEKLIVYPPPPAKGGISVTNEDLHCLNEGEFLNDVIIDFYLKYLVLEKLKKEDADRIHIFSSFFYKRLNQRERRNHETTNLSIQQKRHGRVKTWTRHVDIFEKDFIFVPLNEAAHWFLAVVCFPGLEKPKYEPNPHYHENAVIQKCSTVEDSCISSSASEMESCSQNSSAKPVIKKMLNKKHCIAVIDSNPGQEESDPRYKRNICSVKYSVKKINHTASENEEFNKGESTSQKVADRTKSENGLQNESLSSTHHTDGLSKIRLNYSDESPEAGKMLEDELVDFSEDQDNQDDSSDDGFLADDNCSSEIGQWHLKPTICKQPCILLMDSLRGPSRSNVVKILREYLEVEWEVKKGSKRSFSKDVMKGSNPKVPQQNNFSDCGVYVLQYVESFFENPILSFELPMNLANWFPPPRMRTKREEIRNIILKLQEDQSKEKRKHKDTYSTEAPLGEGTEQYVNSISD

[16] = target: T4, Sentrin-specific protease 8 (Homo sapiens, UniProt Q96LD8); type: functional;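 also: luminescence read-out of SENP8 inhibition, dose-response confirmation following an ultra-high-throughput screen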
T4 sequence (Q96LD8 whole entry): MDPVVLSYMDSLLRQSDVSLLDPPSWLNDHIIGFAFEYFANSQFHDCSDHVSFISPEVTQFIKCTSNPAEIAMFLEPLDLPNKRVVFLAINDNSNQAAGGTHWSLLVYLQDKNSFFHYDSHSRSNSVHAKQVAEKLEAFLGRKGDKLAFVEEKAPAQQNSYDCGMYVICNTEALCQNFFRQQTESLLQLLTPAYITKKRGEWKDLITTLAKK

[17] = target: T5, Protein skinhead-1 (Caenorhabditis elegans, UniProt P34707); type: functional
T5 sequence (P34707 whole entry): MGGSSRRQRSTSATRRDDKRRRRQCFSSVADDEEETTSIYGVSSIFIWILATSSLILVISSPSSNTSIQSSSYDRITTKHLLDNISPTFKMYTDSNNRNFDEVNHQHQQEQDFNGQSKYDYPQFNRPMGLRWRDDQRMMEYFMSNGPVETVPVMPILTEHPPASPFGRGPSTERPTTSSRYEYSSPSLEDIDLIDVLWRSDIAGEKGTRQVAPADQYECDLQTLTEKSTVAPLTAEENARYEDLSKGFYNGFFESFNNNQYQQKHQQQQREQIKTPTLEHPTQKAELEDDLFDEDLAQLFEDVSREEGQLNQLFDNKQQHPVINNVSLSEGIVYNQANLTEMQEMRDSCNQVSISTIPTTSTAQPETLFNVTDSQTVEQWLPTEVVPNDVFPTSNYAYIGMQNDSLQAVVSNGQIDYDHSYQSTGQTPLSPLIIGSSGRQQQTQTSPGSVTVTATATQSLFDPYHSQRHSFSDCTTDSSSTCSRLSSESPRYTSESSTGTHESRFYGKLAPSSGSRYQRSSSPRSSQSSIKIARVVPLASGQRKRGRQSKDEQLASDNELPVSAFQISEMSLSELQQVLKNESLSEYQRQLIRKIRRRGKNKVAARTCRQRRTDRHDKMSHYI

[18] = target: T6, Corticotropin-releasing factor receptor 2/Corticotropin-releasing factor-binding protein (Homo sapiens, UniProt P24387+Q13324); experiment: Dose Response confirmation of uHTS hits for small molecule antagonists of the CRF-binding protein and CRF-R2 receptor complex.; type: functional; conditions: read-out: IC50_Mean
T6 sequence (Q13324 whole entry): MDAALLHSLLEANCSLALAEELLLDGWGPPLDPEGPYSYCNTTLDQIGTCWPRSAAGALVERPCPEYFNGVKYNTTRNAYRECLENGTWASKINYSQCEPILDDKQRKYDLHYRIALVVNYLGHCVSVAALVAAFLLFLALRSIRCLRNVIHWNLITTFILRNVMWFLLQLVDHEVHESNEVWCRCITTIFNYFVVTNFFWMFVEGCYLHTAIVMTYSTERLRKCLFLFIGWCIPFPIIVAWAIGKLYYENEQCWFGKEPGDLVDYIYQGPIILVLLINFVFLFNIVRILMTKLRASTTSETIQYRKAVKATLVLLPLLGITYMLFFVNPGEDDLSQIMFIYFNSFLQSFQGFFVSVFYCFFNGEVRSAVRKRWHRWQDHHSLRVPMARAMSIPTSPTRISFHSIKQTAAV
T6 sequence (P24387 whole entry): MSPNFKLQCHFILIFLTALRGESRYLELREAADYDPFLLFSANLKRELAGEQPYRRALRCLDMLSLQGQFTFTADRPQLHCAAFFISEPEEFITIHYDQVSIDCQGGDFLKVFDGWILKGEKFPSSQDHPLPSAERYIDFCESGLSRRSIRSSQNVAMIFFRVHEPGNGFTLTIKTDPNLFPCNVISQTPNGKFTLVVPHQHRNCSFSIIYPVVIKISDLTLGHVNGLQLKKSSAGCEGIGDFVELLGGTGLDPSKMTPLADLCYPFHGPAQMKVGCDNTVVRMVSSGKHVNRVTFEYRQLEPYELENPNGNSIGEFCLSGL

[19] = target: T6, Corticotropin-releasing factor receptor 2/Corticotropin-releasing factor-binding protein; experiment: activators of CRF receptor 2 with binding protein – uHTS hits, confirmation (AID 602473); type: functional; conditions: read-out: EC50_Mean

Nonstructural protein 1, sequence (Q194T2 whole entry): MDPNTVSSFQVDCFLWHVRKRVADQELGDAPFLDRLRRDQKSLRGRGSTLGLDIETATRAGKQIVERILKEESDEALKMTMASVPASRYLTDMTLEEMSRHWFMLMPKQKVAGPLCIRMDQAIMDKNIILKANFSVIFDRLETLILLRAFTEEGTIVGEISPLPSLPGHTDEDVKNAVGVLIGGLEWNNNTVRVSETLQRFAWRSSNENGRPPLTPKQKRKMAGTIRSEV

SMILES: O=C(O)c1cc2c3ccccc3nc-2c[nH]1
- IC50 [1]: 5.27 µM (active)

SMILES: COc1ccc(Nc2ccc(S(=O)(=O)N3CCCCC3)cc2[N+](=O)[O-])cc1OC
- IC50 [1]: 28.8 µM (active)

SMILES: Cc1ccc(C2(c3ccc(C)cc3)CC2C(=O)Nc2ccc([N+](=O)[O-])cc2O)cc1 (stereo unspecified)
- EC50 [2]: 10.1 µM (active)
- EC50 [3]: 2.34 µM (active)
- EC50 [4]: 13.7 µM (active)
- EC50 [5]: 9.29 µM (active)
- EC50 [6]: 3.31 µM (active)
- CC50 [7]: 3.29 µM (active)
- EC50 [8]: > 60 µM (not active)
- EC50 [9]: 4.17 µM (active)
- IC50 [10]: 33.8 µM (inactive)
- AC50 [11]: 3.61 µM (active)

SMILES: COC(=O)c1cc2c(-c3ccccc3)cc3ccccn3c-2c1C(=O)OC
- IC50 [1]: 19.2 µM (active)
- IC50 [12]: > 79 µM (inactive)

SMILES: COc1ccccc1Nc1ncccc1[N+](=O)[O-]
- IC50 [1]: 29.9 µM (active)

SMILES: Cc1ccc(NC(=O)C2CCC(CNc3c(N4CCC(C)CC4)c(=O)c3=O)CC2)cc1F (stereo unspecified)
- EC50 [2]: 11.5 µM (active)
- EC50 [4]: > 120 µM (not active)
- EC50 [5]: > 120 µM (not active)
- IC50 [10]: > 80 µM (inactive)

SMILES: CN(C)c1ccc([C@@H]2[C@@H]([N+](=O)[O-])[C@H]3C=Cc4ccccc4N3[C@H]2C(=O)c2ccc(Cl)cc2)cc1
- IC50 [1]: 26.5 µM (active)

SMILES: Cc1c(NC(=O)/C=C/c2cn(-c3ccccc3)nc2-c2ccccc2)c(=O)n(-c2ccccc2)n1C
- IC50 [10]: > 80 µM (inactive)

SMILES: COc1cccc(N=Nc2ccc3ccccc3c2O)c1
- IC50 [1]: 5.22 µM (active)

SMILES: Brc1ccc(-c2cnc(-c3cccs3)o2)cc1
- IC50 [13]: 29.5 µM (active)
- IC50 [14]: 5.42 µM (active)
- IC50 [15]: 15 µM (active)
- IC50 [16]: 27.6 µM (active)
- IC50 [17]: 19.7 µM (active)

SMILES: Cc1ccc2oc(-c3ccco3)nc2c1
- IC50 [13]: 6.87 µM (active)
- IC50 [14]: 5.87 µM (active)
- IC50 [15]: 21.3 µM (active)
- IC50 [16]: > 100 µM (inactive)

SMILES: COc1ccc(OC)c(S(=O)(=O)Nc2ccc(-c3ccc4nnc(C)n4n3)cc2)c1
- IC50 [10]: > 80 µM (inactive)

SMILES: O=C(c1cc2nc(-c3ccccc3)cc(-c3ccccc3)n2n1)N1CCN(C(=O)c2ccco2)CC1
- IC50 [10]: 72.3 µM (inactive)
- IC50 [12]: > 79 µM (inactive)
- IC50 [18]: > 47.1 µM (inactive)
- EC50 [19]: > 53 µM (inactive)

SMILES: COc1ccc2nc(Nc3nc4cc5c(cc4s3)OCCO5)sc2c1
- IC50 [13]: 37 µM (active)
- IC50 [14]: 5.81 µM (active)
- IC50 [15]: 66.6 µM (active)
- IC50 [16]: > 100 µM (inactive)

SMILES: NC(=S)NN=Cc1nccc2ccccc12
- IC50 [1]: 2.03 µM (active)
